Test results: patent US12098147B2, “Compound having novel structure, complex comprising same, anti-cancer pharmaceutical composition, and anti-cancer drug” (ETNOVA THERAPEUTICS CORP., priority 2018, dated 2024)
Where two headings read alike, the source gives them in different places.

Key:
[1] = tested on: several cancer cell lines; assay: CCK-8 cell viability, panel of cancer cell lines compared in words (FIGS. 3a to 3e); assay type: cell-based, human; details: for cell toxicity on cancer cell lines compared with BTA, in words / cell toxicity on cancer cell lines compared with cisplatin, in words: Log IC50 comparison, FIGS. 3a to 3e; for cell toxicity on cancer cell lines compared with BTA, in words: comparator BTA; for cell toxicity on cancer cell lines compared with cisplatin, in words: comparator cisplatin
Protocol: (§1) To identify the anticancer effect of the compounds L1, L2, and L3 according to Examples 1 to 3 of the present disclosure, and the complexes L1Pt, L2Pt, and L3Pt according to Examples 4 to 6 of the disclosure, the cell viability analysis of cancer cells using CCK-8 was performed on several cancer cell lines (colorectal cancer cell line (HT-29 cell line), breast cancer cell line (MCF-7 and MDA-MB-231), cervical cancer cell line (HeLa cell line), liver cancer cell line (Huh-7 and HepG2), brain glioma cell line (C6), lung cancer (A549), prostate cancer (PC3), kidney cancer (Caki-2), normal liver cell line (AML-12), embryonic kidney cell line (HEK-293), neural stem cell line (NE-4C) and normal breast epithelial cell line (MCF10a)).
(§2) CCK-8 (Cell counting kit-8) is analyzed using a highly water-soluble tetrazolium salt-[…]. [2-(2-methoxy-4-nitrophenyl)-3-(4-nitrophenyl)(2,4-disulfophenyl)-2H-tetrazolium, monosodium salt] is reduced under the presence of an electron medium to produces a water-soluble formazan orange dye. The amount of the formazan dye produced by dehydrogenase in a cell is directly proportional to the number of living cells.
(§3) In an experimental method for evaluating the properties of the compounds according to the present disclosure, various cancer cell lines derived from humans and normal cell lines of each tissue derived from humans and mice were used in this experiment. A complete growth medium corresponding to each cell line and having 10% of heat-inactivated FBS added thereto was used to maintain corresponding cells. The maintained cells were suspended in a volume of 200 μl at a density of 1 or 1.5×10^4 cells and planted in each well of a 96 well plate. The cells were attached to a 37° C. and 5% CO2 incubator for more than 14 hours, and we waited for a stable state. The next day, we removed the medium from the well. 100 μl of serum-free medium containing drugs of various concentrations (0 (control), 2.5, 5, 10, 20, 30, 40, 50, 100, 200 μM) was added to each well and the cells was cultured therein. On 22 hours after the incubation, 10 μl of CCK-8 solution was added to each well, followed by incubation for 2 hours. A plate on which the culture was completed was measured in terms of absorbance at 450 nm using a microplate reader.
Further, FIGS. 3a to 3e show a graph in which a IC50 value which is obtained based on 2 to 3 times executions of the cell viability analysis is converted to a Log IC50 value. […] The comparative reliability values for BTA were expressed as […], ##p<0.01, and ## #p<0.001. A red line represents the value of cisplatin. A blue line represents the value of BTA.

AML12 = assay: CCK-8 cell viability, AML-12 normal liver cell line; assay type: cell-based; details: for toxicity against normal hepatocytes, in words: normal hepatocytes (AML12), FIG. 4
Protocol: as §2, §3
(§4) Cell Viability Calculation:
(§5) • A: Absorbance value measured in a control well • B: Absorbance value measured in a well containing the drug
(§6) In Table 1 below, each compound was applied to the cells at 0, 2.5, 5, 10, 20, 30, 40, 50, 100, and 200 μM, and the cells was cultured in a medium free of serum for 24 hours. The measured absorbance value was converted to a % value based on a value of 0, such that a IC50 value was calculated. Each experiment was performed 2 to 3 times and a standard deviation value was obtained.

Huh-7 = assay: CCK-8 cell viability, Huh-7 liver cancer cell line; assay type: cell-based, human; details: 24 hours, mean ± SD of 2 to 3 experiments
Protocol: as §1, §2, §3, §4, §5, §6

MCF10a = assay: CCK-8 cell viability, MCF10a normal breast epithelial cell line; assay type: cell-based; details: for cytotoxicity against breast epithelial cells, in words: breast epithelial cells (MCF10a), FIG. 4
Protocol: as §1, §2, §3, §4, §5, §6

MCF-7 = assay: CCK-8 cell viability, MCF-7 breast cancer cell line; assay type: cell-based, human; details: 24 hours, mean ± SD of 2 to 3 experiments
Protocol: as §1, §2, §3, §4, §5, §6

C6 = assay: CCK-8 cell viability, C6 brain glioma cell line; assay type: cell-based, human; details: 24 hours, mean ± SD of 2 to 3 experiments
Protocol: as §1, §2, §3, §4, §5, §6

HeLa cell line = assay: CCK-8 cell viability, HeLa cervical cancer cell line; assay type: cell-based, human; details: serum-free medium, 24 hours, mean ± SD of 2 to 3 experiments
Protocol: as §1, §2, §3, §4, §5, §6

NE-4C = assay: CCK-8 cell viability, NE-4C neural stem cell line; assay type: cell-based; details: for IC50: serum-free medium, 24 hours, CCK-8, mean ± SD of 2 to 3 experiments, read-out: IC50 NC-4C (Neural stem cell); for toxicity against brain neurons, in words: brain neurons (NE-4C), FIG. 4
Protocol: as §2, §3, §4, §5, §6

MDA-MB-231 = assay: CCK-8 cell viability, MDA-MB-231 breast cancer cell line; assay type: cell-based, human; details: 24 hours, mean ± SD of 2 to 3 experiments
Protocol: as §1, §2, §3, §4, §5, §6

HepG2 = assay: CCK-8 cell viability, HepG2 liver cancer cell line; assay type: cell-based, human; details: 24 hours, mean ± SD of 2 to 3 experiments
Protocol: as §1, §2, §3, §4, §5, §6

PC3 = assay: CCK-8 cell viability, PC3 prostate cancer cell line; assay type: cell-based, human; details: serum-free medium, 24 hours, mean ± SD of 2 to 3 experiments
Protocol: as §1, §2, §3, §4, §5, §6

Caki-2 = assay: CCK-8 cell viability, Caki-2 kidney cancer cell line; assay type: cell-based, human; details: serum-free medium, 24 hours, mean ± SD of 2 to 3 experiments
Protocol: as §1, §2, §3, §4, §5, §6

HT-29 cell line = assay: CCK-8 cell viability, HT-29 colorectal cancer cell line; assay type: cell-based, human; details: serum-free medium, 24 hours, mean ± SD of 2 to 3 experiments
Protocol: as §1, §2, §3, §4, §5, §6

A549 = assay: CCK-8 cell viability, A549 lung cancer cell line; assay type: cell-based, human; details: serum-free medium, 24 hours, mean ± SD of 2 to 3 experiments
Protocol: as §1, §2, §3, §4, §5, §6

HEK-293 = assay: CCK-8 cell viability, HEK-293 embryonic kidney cell line; assay type: cell-based; details: serum-free medium, 24 hours, mean ± SD of 2 to 3 experiments, read-out: IC50 HEK293 (embryonic kidney)
Protocol: as §1, §2, §3, §4, §5, §6

[2] = Homo sapiens, Huh-7, serum-free medium
[3] = Homo sapiens, MCF7, serum-free medium
[4] = Rattus norvegicus, C6, serum-free medium
[5] = Homo sapiens, MDA-MB-231, serum-free medium
[6] = serum-free medium, 24 hours, CCK-8, mean ± SD of 2 to 3 experiments

Compound	cell toxicity on cancer cell lines compared with BTA, in words [1]	cell toxicity on cancer cell lines compared with cisplatin, in words [1]	toxicity against normal hepatocytes, in words (AML12)	IC50 (Huh-7; [2])	cytotoxicity against breast epithelial cells, in words (MCF10a)	IC50 (MCF-7; [3])	IC50 (C6; [4])	IC50 (HeLa cell line; Homo sapiens, HeLa)	IC50 (NE-4C; Neural stem cell)	toxicity against brain neurons, in words (NE-4C)	IC50 (MDA-MB-231; [5])	further results
O=C(Nc1ccc(-c2nc3ccccc3s2)cc1)C1CNC(c2ccccn2)=N1 (centres unmarked) [Example L3, N-(4-(benzo[d]thiazol-2-yl)phenyl)-2-(pyridin-2-yl)-4,5-dihydro-1H-imidazole-4-carboxamide]	greater cell toxicity on colorectal cancer breast cancer and brain glioma than BTA did	greater cell toxicity on prostate cancer and kidney cancer than cisplatin did	did not exhibit liver cytotoxicity	178 ± 2.6 µM	weaker cytotoxicity or no cytotoxicity than cisplatin and BTA did	190 ± 16.6 µM	142 ± 15.4 µM	99 ± 3.54 µM	22.4 ± 2.44 µM	greater toxicity than BTA did	> 500 µM	
O=C(Nc1ccc(-c2nc3ccccc3s2)cc1)C(C/N=C/c1ccccc1O)/N=C/c1ccccc1O (centres unmarked) [Example L2, N-(4-benzothiazol-2-yl-phenyl)-2,3-bis-[(2-hydroxy-benzylidene)-amino]-propionamide]	greater cell toxicity against colorectal cancer, breast cancer, liver cancer, brain glioma, lung cancer, prostate cancer, and kidney cancer than BTA did	greater toxic effect on cancer cell lines on lung cancer, prostate cancer, and kidney cancer than cisplatin did	did not exhibit liver cytotoxicity	95.9 ± 15 µM	weak cytotoxicity	98.2 ± 7.92 µM	143 ± 32.7 µM	47.1 ± 6.07 µM	28.23 ± 0.06 µM	greater toxicity than BTA did	152 ± 19.9 µM	IC50 (HepG2; Homo sapiens, HepG2, serum-free medium): 14.2 ± 7.06 µM
O=C(Nc1ccc(-c2nc3ccccc3s2)cc1)C1CNC(c2ccccn2)=N1.[Cl][Pt][Cl] (centres unmarked) [Example L3Pt]			did not exhibit liver cytotoxicity		weaker cytotoxicity or no cytotoxicity than cisplatin and BTA did					greater toxicity than BTA did		effect on cancer cell lines, in words ([1]; Log IC50, FIGS. 3a to 3e, no comparator): only exerts cell toxicity effects on liver cancer; IC50 (PC3): > 500 µM; IC50 (AML12; [6]): > 500 µM; IC50 (Huh-7; serum-free medium): 173 ± 24.3 µM; IC50 (MCF10a; [6]): > 500 µM; IC50 (Caki-2): > 500 µM; IC50 (HT-29 cell line): > 500 µM; IC50 (MCF-7; serum-free medium): > 500 µM; IC50 (C6; serum-free medium): > 500 µM; IC50 (HeLa cell line): > 500 µM; IC50 (A549): > 500 µM; IC50 (NE-4C): 32.4 ± 6.02 µM; IC50 (MDA-MB-231; serum-free medium): > 500 µM; IC50 (HEK-293): 206 ± 7.45 µM; IC50 (HepG2; serum-free medium): > 500 µM
